Measured values published in patent US8414989B2, “Cyclodextrin compositions, articles, and methods” (Cellresin Technologies, LLC, priority 2011, dated 2013).

How the values were obtained:
[1] = Control Example A: dissociation of 1-MCP from supplied 1-MCP/c/α-CD powder as a function of added water; type: physicochemical; details: for Headspace concentration of 1-MCP: 0.1 g 1-MCP/c/α-CD powder, 250 mL bottle, shaken 1 hour, about 20 C
Experimental: A sample of 1-MCP/c/α-CD powder was obtained (AgroFresh of Spring House, Pa.). According to the supplier's specification sheet, 1-MCP was 4.7 wt % of α-CD or 88.7 wt % 1-MCP complex based on a theoretical 1:1 molar ratio of 1-MCP to α-CD; this corresponds to a resulting headspace concentration of 8,600 ppm. A series of tests were conducted to measure the dissociation of 1-MCP from the supplied 1-MCP/c/α-CD as a function of added water. First, 0.1 g aliquots of the supplied 1-MCP/c/α-CD powder were added to each of 5, 250 mL bottles, which were then capped with TEFLON® faced septa. Varying amounts of water were added to the bottles by syringe, and then the bottles were mechanically shaken for one hour, followed by headspace measurement for 1-MCP according to the procedure of Example 3. The amounts of water added per 0.1 g of the supplied 1-MCP/c/α-CD complex, and the resulting headspace measurements after 1 hour at about 20 C, are shown in Table 6.
A polynomial regression was used to calculate the dissociation at 100% RH in the headspace for the five samples of Table 6 (i.e., 4.3 milligrams water per 250 mL volume, see Example 8 for source and calculation of this information). The calculated amount of dissociated 1-MCP at 100% RH was 18 wt-%.

[2] = Example 11: 1-MCP headspace release from UV coating on polyethylene coated paperboard; type: physicochemical; details: UV coating with 1-MCP/c/α-CD on PE coated paperboard, 5 cm x 5 cm, 250 mL jar, 200 μL water, average
Experimental: A 20 mL bottle was charged with 9.6 g of UV curable coating formulation (VP 10169/60 MF-2NE, obtained from Verga GmbH of Aschau am Inn, Germany). Then 0.4 g of 1-MCP/c/α-CD (4.7% 1-MCP, obtained from AgroFresh of […], Pa.) was added to the bottle. The bottle was firmly capped and the components mixed by shaking the bottle by hand until the contents appeared to be uniformly dispersed, providing a UV curable mixture.
A polyethylene coated paperboard was prepared by heat laminating a 30 μm thick polyethylene film to a 20 cm×20 cm section of 600 μm thick solid bleached sulfate (SBS) paperboard (obtained from Graphic Packaging International of_) using a heated vacuum press. A rubber ink roller was used to deliver a thin (nominally 0.3 μm) coating of the UV curable mixture to the laboratory prepared polyethylene coated paperboard, using the technique of Example 2. A paper cutter was used to cut a 20 cm by 10 cm rectangle of the coated portion of the board. The coated rectangle was passed by hand about 10 cm beneath a medium pressure mercury arc lamp operating at 79 watts per cm. After 1.5 seconds exposure to the lamp, the sample was removed. The cured sample was allowed to sit on a laboratory bench overnight, coating side down.
After curing, 5 cm by 5 cm sections were cut from the 20 cm by 10 cm rectangles. Each section was individually placed into a 250 mL jar (tall clear WM SEPTA-JAR™, Fisher Scientific P/N 05-719-452; obtained from Fisher Scientific of Waltham, Mass.) equipped with a TEFLON™ faced septum (Fisher Scientific P/N 14-965-84). Each jar was injected with 200 μL of deionized water. […] Jar headspace was analyzed for 1-MCP at […] time periods (0.17, 0.5, 1, 2, 4 and 7 hours) after the injection of water, using the analytical technique employed in Example 3. The results exemplify that greater amounts of 1-MCP were released into the headspace from the UV coated substrate with increasing time.

In the case of `CC1=CC1` [1-MCP, 1-methylcyclopropene], the “Headspace concentration of 1-MCP” value ([1]; 0.25 g H2O) is reported as 3,050 ppm (v/v), the “Headspace concentration of 1-MCP” value ([1]; 0.5 g H2O) is reported as 4,750 ppm (v/v) and the “Headspace concentration of 1-MCP” value ([1]; 1.0 g H2O) is reported as 6,850 ppm (v/v). The “Headspace concentration of 1-MCP” value ([1]; 2.0 g H2O) was 9,850 ppm (v/v), the “Headspace concentration of 1-MCP” value ([1]; 3.0 g H2O) was 10,610 ppm (v/v) and the “1-MCP dissociated from complex” value ([1]; 1.0 grams of water per 0.10 grams 1-MCP/c/α-CD) was 66%. The “calculated amount of dissociated 1-MCP at 100% RH” value ([1]; polynomial regression of the five samples of Table 6, 4.3 milligrams water per 250 mL volume) was 18 wt-%, the “resulting headspace concentration corresponding to supplier's specification” value ([1]; supplier's specification sheet 4.7 wt % 1-MCP, 0.1 g in 250 mL bottle) was 8,600 ppm and the “Headspace concentration of 1-MCP” value ([2]; 0.17 hours) was 0.16 ppm (v/v). The “Headspace concentration of 1-MCP” value ([2]; 0.5 hours) was 0.63 ppm (v/v), the “Headspace concentration of 1-MCP” value ([2]; 1 hour) was 1.6 ppm (v/v) and the “Headspace concentration of 1-MCP” value ([2]; 2 hours) was 3.6 ppm (v/v). The “Headspace concentration of 1-MCP” value ([2]; 4 hours) was 7.3 ppm (v/v) and the “Headspace concentration of 1-MCP” value ([2]; 7 hours) was 12.5 ppm (v/v).
